Tests used:
Assay in all cases: Kinase panel profiling at 1 µmol/L (mobility shift assay, Carna)
IKKε = target: T1, IKKε (Homo sapiens, UniProt Q14164); format: biochemical; details: 1 µmol/L of BTK inhibitor
T1 construct: purchased Carna Biosciences
T1 sequence (Q14164 1-716): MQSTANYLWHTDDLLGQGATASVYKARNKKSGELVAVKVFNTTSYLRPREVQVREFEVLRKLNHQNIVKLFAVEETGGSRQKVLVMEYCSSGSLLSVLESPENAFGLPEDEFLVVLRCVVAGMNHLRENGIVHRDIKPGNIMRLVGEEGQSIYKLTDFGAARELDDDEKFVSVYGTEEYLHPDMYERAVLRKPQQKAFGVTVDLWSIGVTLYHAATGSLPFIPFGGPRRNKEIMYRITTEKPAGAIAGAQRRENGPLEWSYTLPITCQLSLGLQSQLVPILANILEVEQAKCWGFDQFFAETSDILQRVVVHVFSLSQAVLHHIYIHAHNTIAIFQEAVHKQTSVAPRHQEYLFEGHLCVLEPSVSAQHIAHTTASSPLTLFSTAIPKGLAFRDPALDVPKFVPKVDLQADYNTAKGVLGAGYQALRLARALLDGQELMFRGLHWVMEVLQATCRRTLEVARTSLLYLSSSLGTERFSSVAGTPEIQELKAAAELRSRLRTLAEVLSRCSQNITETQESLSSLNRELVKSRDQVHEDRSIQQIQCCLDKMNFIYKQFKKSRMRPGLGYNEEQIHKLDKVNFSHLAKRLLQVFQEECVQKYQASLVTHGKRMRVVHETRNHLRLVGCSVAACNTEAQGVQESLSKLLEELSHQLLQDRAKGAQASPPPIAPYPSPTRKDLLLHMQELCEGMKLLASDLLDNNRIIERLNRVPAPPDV

TYRO3 = target: T2, TYRO3 (Homo sapiens, UniProt Q06418); format: biochemical; details: 1 µmol/L of BTK inhibitor
T2 construct: purchased Carna Biosciences
T2 sequence (Q06418 41-890): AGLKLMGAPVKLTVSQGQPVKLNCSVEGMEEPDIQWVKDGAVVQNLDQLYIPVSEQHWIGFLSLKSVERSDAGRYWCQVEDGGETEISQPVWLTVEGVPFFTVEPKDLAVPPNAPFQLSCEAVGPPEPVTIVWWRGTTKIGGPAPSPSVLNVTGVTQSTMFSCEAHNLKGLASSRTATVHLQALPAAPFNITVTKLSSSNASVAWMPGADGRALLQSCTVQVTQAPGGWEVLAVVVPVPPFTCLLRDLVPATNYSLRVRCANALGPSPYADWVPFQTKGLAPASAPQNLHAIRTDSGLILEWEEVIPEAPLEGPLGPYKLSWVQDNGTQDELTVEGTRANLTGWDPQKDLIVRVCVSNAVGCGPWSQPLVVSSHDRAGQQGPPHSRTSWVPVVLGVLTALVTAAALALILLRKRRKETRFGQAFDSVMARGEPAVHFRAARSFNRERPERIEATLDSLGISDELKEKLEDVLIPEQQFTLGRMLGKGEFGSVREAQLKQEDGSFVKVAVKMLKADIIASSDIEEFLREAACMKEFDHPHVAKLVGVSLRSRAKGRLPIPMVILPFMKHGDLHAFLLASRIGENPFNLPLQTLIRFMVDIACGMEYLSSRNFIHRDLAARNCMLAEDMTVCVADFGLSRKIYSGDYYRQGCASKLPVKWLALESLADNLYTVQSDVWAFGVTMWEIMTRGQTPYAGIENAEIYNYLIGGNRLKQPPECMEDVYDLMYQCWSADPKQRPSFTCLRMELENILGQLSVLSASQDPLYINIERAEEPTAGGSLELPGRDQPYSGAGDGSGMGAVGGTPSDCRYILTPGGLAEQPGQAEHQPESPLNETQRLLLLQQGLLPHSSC

Aurora B = Aurora B (Homo sapiens, UniProt Q96GD4); details: for Percentage inhibition of kinase enzyme activity: AurB, 1 µmol/L of BTK inhibitor
DDR2 = target: T3, DDR2 (Homo sapiens, UniProt Q16832); format: biochemical; details: 1 µmol/L of BTK inhibitor
T3 construct: purchased Carna Biosciences
T3 sequence (Q16832 22-855): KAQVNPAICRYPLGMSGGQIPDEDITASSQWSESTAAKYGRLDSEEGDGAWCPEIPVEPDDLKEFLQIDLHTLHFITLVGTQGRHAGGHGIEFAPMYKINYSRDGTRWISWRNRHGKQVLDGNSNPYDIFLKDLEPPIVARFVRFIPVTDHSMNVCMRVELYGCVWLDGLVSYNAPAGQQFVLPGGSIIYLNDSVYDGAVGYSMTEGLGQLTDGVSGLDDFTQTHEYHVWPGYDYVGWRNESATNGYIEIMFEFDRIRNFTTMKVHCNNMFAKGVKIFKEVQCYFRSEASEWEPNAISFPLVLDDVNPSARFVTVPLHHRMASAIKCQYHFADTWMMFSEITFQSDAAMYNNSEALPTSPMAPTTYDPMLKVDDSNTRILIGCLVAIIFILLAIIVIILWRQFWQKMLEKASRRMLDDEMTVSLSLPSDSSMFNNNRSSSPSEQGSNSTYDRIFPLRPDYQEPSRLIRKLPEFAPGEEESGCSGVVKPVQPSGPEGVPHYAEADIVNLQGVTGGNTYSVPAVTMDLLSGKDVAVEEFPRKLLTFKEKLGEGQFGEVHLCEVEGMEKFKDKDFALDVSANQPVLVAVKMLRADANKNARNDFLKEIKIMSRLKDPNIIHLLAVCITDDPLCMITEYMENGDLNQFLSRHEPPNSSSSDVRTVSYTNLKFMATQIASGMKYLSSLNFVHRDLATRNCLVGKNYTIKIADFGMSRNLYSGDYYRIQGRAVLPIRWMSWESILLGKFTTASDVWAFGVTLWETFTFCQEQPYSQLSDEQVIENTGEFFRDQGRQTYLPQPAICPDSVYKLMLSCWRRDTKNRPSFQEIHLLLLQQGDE

DYRK1B = target: T4, DYRK1B (Homo sapiens, UniProt Q9Y463); format: biochemical; details: 1 µmol/L of BTK inhibitor
T4 construct: purchased Carna Biosciences
T4 sequence (Q9Y463 whole entry): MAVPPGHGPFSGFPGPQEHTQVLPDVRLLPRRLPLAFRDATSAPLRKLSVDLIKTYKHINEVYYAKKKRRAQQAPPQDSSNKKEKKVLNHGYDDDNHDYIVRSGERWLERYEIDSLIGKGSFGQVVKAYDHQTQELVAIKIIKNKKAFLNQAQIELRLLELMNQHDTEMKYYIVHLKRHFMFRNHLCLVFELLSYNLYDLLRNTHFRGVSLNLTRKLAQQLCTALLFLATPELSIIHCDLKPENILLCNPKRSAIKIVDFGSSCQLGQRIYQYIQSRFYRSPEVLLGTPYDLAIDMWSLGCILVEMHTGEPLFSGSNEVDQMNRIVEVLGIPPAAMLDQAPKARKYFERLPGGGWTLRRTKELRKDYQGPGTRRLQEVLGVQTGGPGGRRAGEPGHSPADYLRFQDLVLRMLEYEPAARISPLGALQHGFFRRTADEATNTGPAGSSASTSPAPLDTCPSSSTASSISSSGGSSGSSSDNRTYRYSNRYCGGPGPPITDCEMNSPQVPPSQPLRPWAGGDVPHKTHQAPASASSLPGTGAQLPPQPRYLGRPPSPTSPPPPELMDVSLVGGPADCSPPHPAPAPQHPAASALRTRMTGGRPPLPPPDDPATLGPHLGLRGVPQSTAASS

Sequence of Aurora B (Q96GD4 whole entry): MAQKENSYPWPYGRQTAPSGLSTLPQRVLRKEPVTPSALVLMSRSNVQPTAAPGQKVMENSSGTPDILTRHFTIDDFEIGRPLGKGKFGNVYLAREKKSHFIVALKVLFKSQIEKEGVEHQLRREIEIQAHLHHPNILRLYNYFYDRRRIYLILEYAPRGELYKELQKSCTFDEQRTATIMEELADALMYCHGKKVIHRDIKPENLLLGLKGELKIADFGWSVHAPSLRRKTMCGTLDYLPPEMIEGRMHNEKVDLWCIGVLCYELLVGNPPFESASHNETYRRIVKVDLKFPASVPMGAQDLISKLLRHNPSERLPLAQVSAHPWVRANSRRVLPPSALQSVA
Sequence of Aurora B (Q9NQS7 803-916 partner limits assumed): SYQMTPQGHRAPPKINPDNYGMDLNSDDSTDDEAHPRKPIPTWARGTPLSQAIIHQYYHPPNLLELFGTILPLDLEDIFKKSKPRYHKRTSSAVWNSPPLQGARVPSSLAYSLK

CC#CC(=O)N1CCC[C@H]1c1nc(-c2ccc(C(=O)Nc3ccccn3)cc2)c2c(N)nccn12 [acalabrutinib]
Percentage inhibition of kinase enzyme activity (IKKε): 1.46% | Percentage inhibition of kinase enzyme activity (TYRO3): 3.11% | Percentage inhibition of kinase enzyme activity (Aurora B): 10.86% | Percentage inhibition of kinase enzyme activity (DDR2): 6.23% | Percentage inhibition of kinase enzyme activity (DYRK1B): -19.49%

COc1ccc(F)cc1C(=O)NCc1ccc(-c2nn([C@@H](C)C(F)(F)F)c(N)c2C(N)=O)cc1 [pirtobrutinib]
Percentage inhibition of kinase enzyme activity (IKKε): 5.28% | Percentage inhibition of kinase enzyme activity (TYRO3): -3.18% | Percentage inhibition of kinase enzyme activity (Aurora B): 88.69% | inhibition at 1 µM (Aurora B; read-out: Inhibition of Aurora B): > 75% | Percentage inhibition of kinase enzyme activity (DDR2): 9.58% | Percentage inhibition of kinase enzyme activity (DYRK1B): 12.04%

O=C(c1ccc(Oc2ccccc2)cc1Cl)c1c[nH]c2ncnc(N[C@@H]3CC[C@@H](CO)OC3)c12 [nemtabrutinib]
Percentage inhibition of kinase enzyme activity (IKKε): 11.64% | Percentage inhibition of kinase enzyme activity (TYRO3): 58.33% | Percentage inhibition of kinase enzyme activity (Aurora B): 57.52% | Percentage inhibition of kinase enzyme activity (DDR2): 93.92% | Percentage inhibition of kinase enzyme activity (DYRK1B): -3.59%

C=CC(=O)N1CCC[C@@H](n2nc(-c3ccc(Oc4ccccc4)cc3)c3c(N)ncnc32)C1 [ibrutinib]
Percentage inhibition of kinase enzyme activity (IKKε): -0.70% | Percentage inhibition of kinase enzyme activity (TYRO3): 11.95% | Percentage inhibition of kinase enzyme activity (Aurora B): -1.10% | Percentage inhibition of kinase enzyme activity (DDR2): 17.34% | Percentage inhibition of kinase enzyme activity (DYRK1B): 1.91%

— article PMC12586182 (Frontiers in Oncology, 2025)
